# Data published in ChEMBL document CHEMBL4507278 (2021).
# Columns and labels:
# [1] = biological target: Dual specificity mitogen-activated protein kinase kinase 4 (Homo sapiens) (UniProt P45985); settings: Compound concentration 1000.0 nM
# [2] = biological target: Leukocyte tyrosine kinase receptor (Homo sapiens) (UniProt P29376); settings: Compound concentration 1000.0 nM
# [3] = biological target: Muscarinic acetylcholine receptor M2 (Homo sapiens) (UniProt P08172); settings: Compound concentration 10.0 uM
# Sequence of Muscarinic acetylcholine receptor M2 (Homo sapiens) (P08172 whole entry): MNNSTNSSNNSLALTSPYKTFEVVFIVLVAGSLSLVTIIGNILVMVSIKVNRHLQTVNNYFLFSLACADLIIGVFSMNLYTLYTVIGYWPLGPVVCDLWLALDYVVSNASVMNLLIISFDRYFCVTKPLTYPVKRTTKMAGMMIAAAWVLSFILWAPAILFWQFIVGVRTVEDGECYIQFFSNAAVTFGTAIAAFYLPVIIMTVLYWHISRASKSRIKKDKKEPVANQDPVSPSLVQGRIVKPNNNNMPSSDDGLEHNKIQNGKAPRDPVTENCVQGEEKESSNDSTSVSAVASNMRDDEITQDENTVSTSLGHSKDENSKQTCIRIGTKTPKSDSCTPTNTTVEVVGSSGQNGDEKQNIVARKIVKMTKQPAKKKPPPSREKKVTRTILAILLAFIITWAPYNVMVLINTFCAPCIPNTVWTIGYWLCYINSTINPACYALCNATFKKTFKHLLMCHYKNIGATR
# [4] = biological target: Serine/threonine-protein kinase ULK2 (Homo sapiens) (UniProt Q8IYT8); settings: Compound concentration 1000.0 nM
# [5] = biological target: Alpha-1B adrenergic receptor (Homo sapiens) (UniProt P35368); settings: Compound concentration 10.0 uM
# Sequence of Alpha-1B adrenergic receptor (Homo sapiens) (P35368 whole entry): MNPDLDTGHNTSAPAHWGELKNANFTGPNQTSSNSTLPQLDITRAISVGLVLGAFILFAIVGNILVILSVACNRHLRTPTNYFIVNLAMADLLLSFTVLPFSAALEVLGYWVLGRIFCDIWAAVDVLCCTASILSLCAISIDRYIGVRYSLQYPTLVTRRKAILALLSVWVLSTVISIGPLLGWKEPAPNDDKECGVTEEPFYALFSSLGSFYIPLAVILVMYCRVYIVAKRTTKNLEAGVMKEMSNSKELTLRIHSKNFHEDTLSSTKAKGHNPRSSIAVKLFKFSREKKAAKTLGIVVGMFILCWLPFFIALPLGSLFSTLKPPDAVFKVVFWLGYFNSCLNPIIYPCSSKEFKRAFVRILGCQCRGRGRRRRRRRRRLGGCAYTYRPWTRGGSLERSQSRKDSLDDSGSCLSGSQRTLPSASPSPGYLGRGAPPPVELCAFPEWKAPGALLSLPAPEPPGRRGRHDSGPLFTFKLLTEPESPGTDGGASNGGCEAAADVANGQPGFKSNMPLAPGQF
# [6] = biological target: RAC-beta serine/threonine-protein kinase (Homo sapiens) (UniProt P31751); settings: Compound concentration 1000.0 nM
# [7] = biological target: Beta-2 adrenergic receptor (Homo sapiens) (UniProt P07550); experiment: BETA2/HU Eurofins-Panlabs selectivity data (BI); settings: Compound concentration 10.0 uM
# [8] = biological target: Adenosine receptor A3 (Homo sapiens) (UniProt P0DMS8); experiment: A3/H Eurofins-Panlabs selectivity data (BI); settings: Compound concentration 10.0 uM
# Sequence of Adenosine receptor A3 (Homo sapiens) (P0DMS8 whole entry): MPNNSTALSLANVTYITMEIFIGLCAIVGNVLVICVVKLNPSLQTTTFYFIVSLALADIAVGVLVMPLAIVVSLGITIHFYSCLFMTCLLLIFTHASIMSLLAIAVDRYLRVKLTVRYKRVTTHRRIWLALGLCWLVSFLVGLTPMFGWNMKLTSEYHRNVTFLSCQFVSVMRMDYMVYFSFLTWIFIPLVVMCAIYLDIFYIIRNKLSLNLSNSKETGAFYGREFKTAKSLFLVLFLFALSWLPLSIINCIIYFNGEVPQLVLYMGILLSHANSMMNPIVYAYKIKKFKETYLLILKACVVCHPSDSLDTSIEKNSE
# [9] = biological target: 3',5'-cyclic-AMP phosphodiesterase 4A (Rattus norvegicus) (UniProt P54748); experiment: ROLIPRAM/R Eurofins-Panlabs selectivity data (BI); settings: Compound concentration 10.0 uM
# [10] = biological target: Androgen receptor (Rattus norvegicus) (UniProt P15207); experiment: TESTOST/RA Eurofins-Panlabs selectivity data (BI); settings: Compound concentration 10.0 uM
# [11] = biological target: Kappa-type opioid receptor (Homo sapiens) (UniProt P41145); experiment: KAPPA/HU Eurofins-Panlabs selectivity data (BI); settings: Compound concentration 10.0 uM
# Sequence of Kappa-type opioid receptor (Homo sapiens) (P41145 whole entry): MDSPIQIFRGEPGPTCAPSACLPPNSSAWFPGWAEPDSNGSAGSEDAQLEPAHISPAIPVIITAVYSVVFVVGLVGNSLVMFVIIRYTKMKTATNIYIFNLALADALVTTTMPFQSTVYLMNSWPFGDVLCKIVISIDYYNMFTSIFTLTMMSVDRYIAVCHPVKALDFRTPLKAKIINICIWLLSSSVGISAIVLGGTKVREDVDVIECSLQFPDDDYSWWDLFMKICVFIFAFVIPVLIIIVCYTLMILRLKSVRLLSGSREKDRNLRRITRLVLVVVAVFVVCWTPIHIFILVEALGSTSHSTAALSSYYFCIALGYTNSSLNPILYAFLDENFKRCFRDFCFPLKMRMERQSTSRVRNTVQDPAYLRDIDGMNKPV
# [12] = biological target: Glutamate receptor ionotropic, NMDA 2A (Rattus norvegicus) (UniProt Q00959); experiment: NMDAPHSI/R Eurofins-Panlabs selectivity data (BI); settings: Compound concentration 10.0 uM
# [13] = biological target: D(3) dopamine receptor (Homo sapiens) (UniProt P35462); experiment: D3/HU Eurofins-Panlabs selectivity data (BI); settings: Compound concentration 10.0 uM
# [14] = biological target: Neuropeptide Y receptor type 2 (Homo sapiens) (UniProt P49146); experiment: Y2/HU Eurofins-Panlabs selectivity data (BI); settings: Compound concentration 10.0 uM
# [15] = biological target: Sodium-dependent dopamine transporter (Homo sapiens) (UniProt Q01959); experiment: DATRANS/H Eurofins-Panlabs selectivity data (BI); settings: Compound concentration 10.0 uM
# Sequence of Sodium-dependent dopamine transporter (Homo sapiens) (Q01959 whole entry): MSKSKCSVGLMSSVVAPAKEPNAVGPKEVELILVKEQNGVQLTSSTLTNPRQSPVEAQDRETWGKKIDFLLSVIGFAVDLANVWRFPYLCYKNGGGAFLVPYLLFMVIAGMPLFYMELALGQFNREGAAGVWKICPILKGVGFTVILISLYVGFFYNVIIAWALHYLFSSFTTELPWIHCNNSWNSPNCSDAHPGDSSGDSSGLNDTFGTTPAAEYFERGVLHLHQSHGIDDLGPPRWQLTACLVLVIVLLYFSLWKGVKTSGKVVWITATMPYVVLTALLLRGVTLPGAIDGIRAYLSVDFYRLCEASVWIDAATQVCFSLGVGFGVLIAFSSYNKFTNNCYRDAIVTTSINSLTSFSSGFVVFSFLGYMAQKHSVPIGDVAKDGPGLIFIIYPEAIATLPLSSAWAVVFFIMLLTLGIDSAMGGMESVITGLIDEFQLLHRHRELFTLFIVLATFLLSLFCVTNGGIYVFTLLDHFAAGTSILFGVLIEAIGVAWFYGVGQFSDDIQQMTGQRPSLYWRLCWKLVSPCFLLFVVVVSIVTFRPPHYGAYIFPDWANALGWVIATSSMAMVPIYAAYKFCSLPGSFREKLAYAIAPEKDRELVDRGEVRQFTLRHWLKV
# [16] = biological target: hERG (KCNH2) (Homo sapiens, UniProt Q12809); experiment: K+/HERG Eurofins-Panlabs selectivity data (BI); settings: compound concentration 10 uM, read-out: % Ctrl
# Sequence of hERG (KCNH2) (Q12809 whole entry): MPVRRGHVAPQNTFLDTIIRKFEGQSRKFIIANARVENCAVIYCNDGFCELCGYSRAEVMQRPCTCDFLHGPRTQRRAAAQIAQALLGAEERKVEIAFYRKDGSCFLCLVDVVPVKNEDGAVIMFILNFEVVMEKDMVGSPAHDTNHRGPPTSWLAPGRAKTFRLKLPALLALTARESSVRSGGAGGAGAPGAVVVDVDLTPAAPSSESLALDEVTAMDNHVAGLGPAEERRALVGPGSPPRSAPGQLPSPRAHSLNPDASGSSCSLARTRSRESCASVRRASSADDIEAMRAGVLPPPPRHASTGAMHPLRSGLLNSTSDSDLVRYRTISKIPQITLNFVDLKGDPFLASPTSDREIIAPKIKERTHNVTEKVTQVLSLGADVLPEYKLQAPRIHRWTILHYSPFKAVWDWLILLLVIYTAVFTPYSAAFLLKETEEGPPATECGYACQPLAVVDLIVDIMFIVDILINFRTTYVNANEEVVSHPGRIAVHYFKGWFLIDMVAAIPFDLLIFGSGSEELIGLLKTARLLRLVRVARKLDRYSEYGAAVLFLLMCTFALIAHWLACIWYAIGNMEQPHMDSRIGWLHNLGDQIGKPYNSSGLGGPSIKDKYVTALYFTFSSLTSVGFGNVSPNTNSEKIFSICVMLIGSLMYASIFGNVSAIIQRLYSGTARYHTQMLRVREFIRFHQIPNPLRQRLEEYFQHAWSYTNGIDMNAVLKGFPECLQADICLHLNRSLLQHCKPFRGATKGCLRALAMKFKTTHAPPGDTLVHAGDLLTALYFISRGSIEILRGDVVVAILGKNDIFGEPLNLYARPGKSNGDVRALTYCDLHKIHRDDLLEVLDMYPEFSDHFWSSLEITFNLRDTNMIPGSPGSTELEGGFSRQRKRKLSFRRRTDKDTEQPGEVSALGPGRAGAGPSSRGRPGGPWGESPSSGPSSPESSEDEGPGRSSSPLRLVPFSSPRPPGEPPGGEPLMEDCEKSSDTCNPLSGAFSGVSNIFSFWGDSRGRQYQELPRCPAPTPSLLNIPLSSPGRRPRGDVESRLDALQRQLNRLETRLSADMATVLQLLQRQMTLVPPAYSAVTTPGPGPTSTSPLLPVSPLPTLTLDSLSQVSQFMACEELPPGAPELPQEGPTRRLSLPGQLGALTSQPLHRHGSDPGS
# [17] = biological target: Sodium-dependent serotonin transporter (Homo sapiens) (UniProt P31645); experiment: 5HTTRANS/HU Eurofins-Panlabs selectivity data (BI); settings: Compound concentration 10.0 uM
# Sequence of Sodium-dependent serotonin transporter (Homo sapiens) (P31645 whole entry, looked up): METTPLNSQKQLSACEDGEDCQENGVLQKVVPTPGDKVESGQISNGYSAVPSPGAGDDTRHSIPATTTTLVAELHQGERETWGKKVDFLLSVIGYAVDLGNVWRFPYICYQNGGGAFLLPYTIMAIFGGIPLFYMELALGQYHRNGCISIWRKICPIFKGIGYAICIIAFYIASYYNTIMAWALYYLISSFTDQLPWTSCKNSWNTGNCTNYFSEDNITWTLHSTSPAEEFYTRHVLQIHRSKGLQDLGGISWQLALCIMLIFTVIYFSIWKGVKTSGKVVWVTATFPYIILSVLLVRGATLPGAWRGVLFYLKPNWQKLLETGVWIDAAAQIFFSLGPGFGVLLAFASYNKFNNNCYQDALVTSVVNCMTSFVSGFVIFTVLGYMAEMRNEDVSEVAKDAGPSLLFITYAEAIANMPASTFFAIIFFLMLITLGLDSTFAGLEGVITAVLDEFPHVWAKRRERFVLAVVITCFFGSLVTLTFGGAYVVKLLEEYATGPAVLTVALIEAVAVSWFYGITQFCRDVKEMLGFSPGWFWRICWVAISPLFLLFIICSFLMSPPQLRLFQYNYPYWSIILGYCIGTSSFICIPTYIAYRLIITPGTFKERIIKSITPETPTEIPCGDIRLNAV
# [18] = biological target: B1 bradykinin receptor (Homo sapiens) (UniProt P46663); experiment: B1/H Eurofins-Panlabs selectivity data (BI); settings: Compound concentration 10.0 uM
# Sequence of B1 bradykinin receptor (Homo sapiens) (P46663 whole entry): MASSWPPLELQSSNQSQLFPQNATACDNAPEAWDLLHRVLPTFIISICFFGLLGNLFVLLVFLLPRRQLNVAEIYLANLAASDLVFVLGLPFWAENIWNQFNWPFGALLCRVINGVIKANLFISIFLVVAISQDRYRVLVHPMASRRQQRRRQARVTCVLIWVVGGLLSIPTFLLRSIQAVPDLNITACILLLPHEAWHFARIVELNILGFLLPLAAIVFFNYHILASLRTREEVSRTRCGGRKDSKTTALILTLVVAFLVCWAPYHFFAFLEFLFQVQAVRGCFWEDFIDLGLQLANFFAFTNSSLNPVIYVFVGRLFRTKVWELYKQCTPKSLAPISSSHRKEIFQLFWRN
# [19] = biological target: Glutamate receptor ionotropic, kainate 1 (Rattus norvegicus) (UniProt P22756); experiment: KAINATE/R Eurofins-Panlabs selectivity data (BI); settings: Compound concentration 10.0 uM
# [20] = biological target: T1, D(4) dopamine receptor (Homo sapiens) (UniProt P21917); experiment: D4.2/H Eurofins-Panlabs selectivity data (BI); settings: Compound concentration 10.0 uM
# T1 sequence (whole entry): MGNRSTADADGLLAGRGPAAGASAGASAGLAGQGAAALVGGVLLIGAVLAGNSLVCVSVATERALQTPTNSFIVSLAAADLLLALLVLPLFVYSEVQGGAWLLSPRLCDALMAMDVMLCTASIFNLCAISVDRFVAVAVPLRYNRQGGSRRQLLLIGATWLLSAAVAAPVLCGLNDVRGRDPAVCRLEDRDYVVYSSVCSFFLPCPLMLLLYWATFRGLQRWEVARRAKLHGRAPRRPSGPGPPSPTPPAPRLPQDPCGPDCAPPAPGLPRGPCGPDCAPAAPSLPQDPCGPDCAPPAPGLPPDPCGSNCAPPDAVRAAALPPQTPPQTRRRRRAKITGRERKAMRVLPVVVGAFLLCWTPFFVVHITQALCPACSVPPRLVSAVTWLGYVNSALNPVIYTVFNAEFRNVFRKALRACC
# [21] = biological target: P2X purinoceptor (Oryctolagus cuniculus) (UniProt G1U3D6); experiment: P2X/RB Eurofins-Panlabs selectivity data (BI); settings: Compound concentration 10.0 uM
# [22] = biological target: Endothelin receptor type B (Homo sapiens) (UniProt P24530); experiment: ETB/HUM Eurofins-Panlabs selectivity data (BI); settings: Compound concentration 10.0 uM
# [23] = biological target: Delta-type opioid receptor (Homo sapiens) (UniProt P41143); experiment: DELTA/HU Eurofins-Panlabs selectivity data (BI); settings: Compound concentration 10.0 uM
# Sequence of Delta-type opioid receptor (Homo sapiens) (P41143 whole entry): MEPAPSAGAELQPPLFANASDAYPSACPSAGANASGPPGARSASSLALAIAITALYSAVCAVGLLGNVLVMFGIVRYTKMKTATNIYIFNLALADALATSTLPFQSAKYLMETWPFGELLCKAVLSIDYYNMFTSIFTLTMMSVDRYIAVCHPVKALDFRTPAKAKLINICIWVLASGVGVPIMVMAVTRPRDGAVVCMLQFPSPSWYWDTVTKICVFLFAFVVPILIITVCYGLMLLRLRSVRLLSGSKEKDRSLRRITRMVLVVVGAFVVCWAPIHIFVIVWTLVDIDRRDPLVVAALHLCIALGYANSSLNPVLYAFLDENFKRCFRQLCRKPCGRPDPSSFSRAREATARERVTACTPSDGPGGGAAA
# [24] = biological target: T2, Alpha-1D adrenergic receptor (Homo sapiens) (UniProt P25100); experiment: ALPHA1D/H Eurofins-Panlabs selectivity data (BI); settings: Compound concentration 10.0 uM
# T2 sequence (whole entry): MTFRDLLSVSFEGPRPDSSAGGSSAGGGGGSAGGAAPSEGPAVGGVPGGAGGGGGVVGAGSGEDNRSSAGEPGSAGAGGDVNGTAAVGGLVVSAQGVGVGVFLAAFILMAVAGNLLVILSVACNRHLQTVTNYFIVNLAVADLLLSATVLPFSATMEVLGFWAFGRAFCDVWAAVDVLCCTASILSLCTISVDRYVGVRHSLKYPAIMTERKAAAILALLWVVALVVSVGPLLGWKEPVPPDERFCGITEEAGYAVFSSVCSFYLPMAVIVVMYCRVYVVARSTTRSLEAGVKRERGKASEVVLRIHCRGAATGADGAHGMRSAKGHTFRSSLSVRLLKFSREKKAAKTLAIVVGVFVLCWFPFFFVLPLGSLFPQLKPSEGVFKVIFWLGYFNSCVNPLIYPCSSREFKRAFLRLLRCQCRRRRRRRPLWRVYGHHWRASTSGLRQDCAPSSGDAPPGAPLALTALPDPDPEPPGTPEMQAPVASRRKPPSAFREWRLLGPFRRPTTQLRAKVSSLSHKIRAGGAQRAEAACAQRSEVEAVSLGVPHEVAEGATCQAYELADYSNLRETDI
# [25] = biological target: T3, Alpha-2A adrenergic receptor (Homo sapiens) (UniProt P08913); experiment: ALPHA2A/H Eurofins-Panlabs selectivity data (BI); settings: Compound concentration 10.0 uM
# T3 sequence (whole entry): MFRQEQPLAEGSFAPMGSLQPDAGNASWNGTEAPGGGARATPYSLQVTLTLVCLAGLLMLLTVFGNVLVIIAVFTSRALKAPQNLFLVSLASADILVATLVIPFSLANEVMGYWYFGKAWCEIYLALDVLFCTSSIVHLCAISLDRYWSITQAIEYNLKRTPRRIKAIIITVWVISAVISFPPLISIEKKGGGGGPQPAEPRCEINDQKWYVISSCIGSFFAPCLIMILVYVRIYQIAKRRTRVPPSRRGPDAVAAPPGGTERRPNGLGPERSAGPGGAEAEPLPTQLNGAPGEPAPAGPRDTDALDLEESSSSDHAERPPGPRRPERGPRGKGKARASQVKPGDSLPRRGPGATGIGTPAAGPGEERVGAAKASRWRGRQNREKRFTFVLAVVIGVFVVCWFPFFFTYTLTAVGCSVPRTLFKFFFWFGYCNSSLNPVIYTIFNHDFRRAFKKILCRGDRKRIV
# [26] = biological target: Adenosine receptor A2a (Homo sapiens) (UniProt P29274); experiment: A2A/HU Eurofins-Panlabs selectivity data (BI); settings: Compound concentration 10.0 uM
smiles,measurement,setting,value
CS(=O)(=O)NCC[C@H](NC(=O)c1cncc2c1cnn2-c1ccc(F)cc1)c1ccnc(S(C)(=O)=O)c1 [BI 9307],residual activity,[1],100%
same,residual activity,[2],100%
same,inhibition,[3],17.4%
same,residual activity,[4],100%
same,inhibition,[5],15.8%
same,residual activity,[6],100%
CS(=O)(=O)c1cc(C2(NC(=O)c3cncc4c3cnn4-c3ccc(F)cc3)CC2)ccn1 [BI 639667],residual activity,[7],96%
same,residual activity,[8],81%
same,residual activity,[9],81%
same,residual activity,[10],91%
same,residual activity,[11],101%
same,residual activity,[12],93%
same,residual activity,[13],105%
same,residual activity,[14],98%
same,residual activity,[15],28%
same,activity at 10 µM,[16],104% (not active)
same,residual activity,[17],100%
same,residual activity,[18],99%
same,residual activity,[19],91%
same,residual activity,[20],94%
same,residual activity,[21],101%
same,residual activity,[22],97%
same,residual activity,[23],91%
same,residual activity,[24],82%
same,residual activity,[25],79%
same,residual activity,[26],31%
